pEC50, pIC50: −log10 of the molar value. Like-named read-outs stand apart in the source and are kept apart here.
Legend:
Type in all cases: cell-based
[1] = test system: PD1-ss+10aa/Gaussia Luciferase; assay: Dox-Induced PD1-ss-Gluc Assay; details: 293FRT/TO cells, read-out: 24 hr Dox Inducible PD1ssGluc 293FRT/TO: Mean IC50
Method in brief: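 Stable cell line carrying PD1-ss+10aa/Gaussia luciferase cDNA under T-REx (doxycycline-inducible) control, plated the day before assay. Compound dilutions in DMSO/media containing doxycycline added and incubated at 37° C, 5% CO2. Undefined stereocentres: data refer to stereoisomer mixtures.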

[2] = test system: TNFα-FL/Gaussia Luciferase; assay: Dox Induced TNFα-FL-Gluc Assay; details: 293FRT/TO cells, read-out: 24 hr Dox Inducible TNFaFLGluc 293FRT/TO: Mean IC50
Method in brief: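 A stable T-REx cell line carrying doxycycline-inducible TNFα-FL/Gaussia luciferase was plated the day before assay. Compound dilutions in DMSO/media containing doxycycline were then added and incubated at 37° C, 5% CO2.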

[3] = test system: HER3-ss+4aa/Gaussia Luciferase; assay: Dox-Induced Her3-ss-Gluc Assay; details: 293FRT/TO cells, read-out: 24 hr Dox Inducible Her3(ss + 4)Gluc 293FRT/TO: Mean IC50
Method in brief: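 Stable T-REx cell line carrying a doxycycline-regulated HER3-ss+4aa/Gaussia luciferase insert, plated the day before assay. Compound dilutions in DMSO/media with doxycycline added, then incubated at 37° C., 5% CO2. Stereoisomer mixtures tested where stereochemistry is not drawn.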

[4] = test system: IL-2-FL/Gaussia Luciferase; assay: Dox Induced IL2-FL-Gluc Assay; details: 293FRT/TO cells, read-out: 24 hr Dox Inducible IL2FLGIuc 293FRT/TO: Mean IC50
Method in brief: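 Stable T-REx cell line expressing doxycycline-inducible IL-2-FL/Gaussia luciferase cDNA, plated the day before assay. Compound dilutions in DMSO/media containing doxycycline added and incubated at 37° C., 5% CO2. Unspecified stereochemistry means data refer to a stereoisomer mixture.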

[5] = test system: human multiple myeloma cell line NCI-H929; assay: H929 Cell Viability Assay; details: 48 hr, NCI-H929 cells, Celltiter-Glo, read-out: 48 hr H929 Viability Celltiter-Glo: Mean EC50
Protocol: Plates were incubated at 37° C., 5% CO2 for 48 hours. After 48 hours, Celltiter-Glo® (Promega) was added to each well and luciferase signal was quantified using Tecan Infinite M1000 Pro for cell viability determination.
For chemical structures that include one or more stereoisomers, but are illustrated without indicating stereochemistry, the assay data refers to a mixture of stereoisomers.

[6] = test system: human multiple myeloma cell line U266B1; assay: U266 Cell Viability Assay; details: U-266, 48 hr, U266B1 cells, Celltiter-Glo, read-out: 48 hr U266 Viability Celltiter-Glo: Mean EC50
Method in brief: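 U266B1 myeloma cells treated with compound dilutions in DMSO/media for 48 h at 37 °C, 5% CO2. Viability read by CellTiter-Glo luminescence. Stereochemically undefined structures were tested as stereoisomer mixtures.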

[7] = 24 hr doxycycline induction, Gaussia luciferase signal

Row | SMILES | pIC50 ([1]; 24 hr, doxycycline-induced) | pIC50 ([2]; 24 hr, doxycycline-induced) | pIC50 ([3]; 24 hr, doxycycline-induced) | pIC50 ([4]; 24 hr, doxycycline-induced) | pEC50 [5] | pEC50 [6] | pIC50 [1, 7] | pIC50 [2, 7] | pIC50 [3, 7] | pIC50 [4, 7]
1 | COc1ccc(N2CC(c3csc(NC(=O)c4cccn4Cc4ccncc4)n3)C2)nc1 [Compound A315] | 6.60 | 5.10 | 6.08 | 5.85 | < 4.60 | < 4.60 |  |  |  | 
2 | CC(C)OC(C)(C)c1csc(NC(=O)c2cccn2Cc2ccc(S(C)(=O)=O)cc2)n1 [Compound A84, N-(4-(2-isopropoxypropan-2-yl)thiazol-2-yl)-1-(4-(methylsulfonyl)benzyl)-1H-pyrrole-2-carboxamide] |  |  |  |  | < 4.60 | < 4.60 | 5.20 | < 4.60 | < 4.60 | 5.24
3 | Cc1sc(NC(=O)c2cccn2Cc2ccncc2)nc1C(C)OC(C)C (stereo not drawn) [Compound A20, N-(4-(1-isopropoxyethyl)-5-methylthiazol-2-yl)-1-(pyridin-4-ylmethyl)-1H-pyrrole-2-carboxamide] |  |  |  |  | < 4.60 | < 4.60 | 6.61 | 5.14 | 6.29 | 6.45
4 | O=C(Nc1nc(C2CCc3ccccc3O2)cs1)c1cccn1CCCc1ccncc1 (stereo not drawn) [Compound A286] |  |  |  |  | 5.02 | 4.80 | 5.89 | 5.21 | 5.62 | 5.41
5 | O=C(Nc1nc([C@@H]2CCCN2c2ccccc2)cs1)c1cccn1Cc1ccncc1 [Compound A276] |  |  |  |  | 4.71 | < 4.59 | 6.54 | 5.61 | 6.07 | 5.82
6 | CC(=O)N(C)c1ccc(/C=C/c2csc(NC(=O)c3cccn3Cc3ccncc3)n2)cc1 [Compound A245] |  |  |  |  | 5.04 | 4.76 | 5.50 | 4.65 | < 4.60 | 4.85
7 | CCc1nc(NC(=O)[C@H]2CCCN2Cc2ccncc2)sc1C [Compound B24] | < 4.60 | < 4.60 | < 4.60 | < 4.60 | < 4.60 | < 4.60 |  |  |  | 
8 | O=C(Nc1nc(C2CC(c3ccccc3)C2)cs1)c1cccn1CCCc1ccncc1 (stereo not drawn) [Compound A287] |  |  |  |  | 5.30 | < 4.60 | 7.06 | 5.94 | 6.74 | 6.42
9 | CC(C)OC(C)(C)c1csc(NC(=O)c2cccn2CCCc2ccncc2)n1 [Compound A11, N-(4-(2-isopropoxypropan-2-yl)thiazol-2-yl)-1-(3-(pyridin-4-yl)propyl)-1H-pyrrole-2-carboxamide] |  |  |  |  | 5.06 | < 4.60 | 6.94 | 5.62 | 6.89 | 7.21
10 | O=C(Nc1nc([C@@H]2CC[C@@H](c3ccccc3)C2)cs1)c1cccn1Cc1ccncc1 (stereo in doubt) [Compound A292, N-(4-((1R,3R)-3-phenylcyclopentyl)thiazol-2-yl)-1-(pyridin-4-ylmethyl)-1H-pyrrole-2-carboxamide] |  |  |  |  | 4.72 | < 4.60 | 6.68 | 5.60 | 6.33 | 6.08
11 | COc1cccc(/C=C/c2csc(NC(=O)c3cccn3Cc3ccncc3)n2)c1 [Compound A159, N-(4-(3-methoxystyryl)thiazol-2-yl)-1-(pyridin-4-ylmethyl)-1H-pyrrole-2-carboxamide] |  |  |  |  | 5.24 | 4.79 | 6.61 | 5.05 | 6.02 | 5.58
12 | CC(/C=C/c1csc(NC(=O)c2cccn2Cc2ccncc2)n1)c1ccccc1 (stereo not drawn) [Compound A251] |  |  |  |  | 4.93 | < 4.60 | 6.90 | 5.85 | 6.46 | 6.26
13 | CC(C)(C)c1csc(NC(=O)c2cccn2Cc2ccccc2)n1 [Compound B27, 1-benzyl-N-(4-(tert-butyl)thiazol-2-yl)-1H-pyrrole-2-carboxamide] | < 4.60 | < 4.60 | < 4.60 | < 4.60 | < 4.60 | < 4.60 |  |  |  | 
14 | C[C@H](OC(C)(C)c1csc(NC(=O)c2cccn2Cc2ccncc2)n1)c1ccccc1 [Compound A1, (S)-N-(4-(2-(1-phenylethoxy)propan-2-yl)thiazol-2-yl)-1-(pyridin-4-ylmethyl)-1H-pyrrole-2-carboxamide] |  |  |  |  | 5.73 | < 4.60 | 7.62 | 6.40 | 7.26 | 7.03
15 | O=C(Nc1nc([C@@H]2CCCN2Cc2ccccc2)cs1)c1cccn1Cc1ccncc1 [Compound A277] |  |  |  |  | 4.73 | < 4.60 | 6.49 | 5.39 | 6.09 | 6.11
16 | O=C(Nc1nc([C@H]2CCCN2c2ccccc2)cs1)c1cccn1Cc1ccncc1 [Compound A275] |  |  |  |  | 5.83 | < 4.60 | 7.82 | 6.83 | 7.49 | 7.54
17 | Cc1csc(N(C)C(=O)c2cccn2Cc2ccncc2)n1 [Compound A118] |  |  |  |  | < 4.60 | < 4.60 | < 4.60 | < 4.60 | < 4.60 | < 4.60
18 | O=C(Nc1nc(/C=C/c2ccc3c(c2)OC(F)(F)O3)cs1)c1cccn1Cc1ccncc1 [Compound A235, N-(4-(2-(2,2-difluorobenzo[d][1,3]dioxo1-5-yl)vinyl)thiazol-2-yl)-1-(pyridin-4-ylmethyl)-1H-pyrrole-2-carboxamide] |  |  |  |  | 5.38 | < 4.60 | 7.20 | < 4.60 | 6.84 | 6.63
19 | O=C(Nc1nc([C@@H]2CCCCN2c2ccccc2)cs1)c1cccn1Cc1ccncc1 [Compound A332] | 7.19 | 6.29 | 7.01 | 7.09 | 5.37 | < 4.60 |  |  |  | 
20 | Cc1cnccc1Cn1cccc1C(=O)Nc1nc(C(C)(C)OC(C)C)cs1 [Compound A24, N-(4-(2-isopropoxypropan-2-yl)thiazol-2-yl)-1-((3-methylpyridin-4-yl)methyl)-1H-pyrrole-2-carboxamide] |  |  |  |  | < 4.60 | < 4.60 | 6.52 | 4.93 | 6.21 | 6.32
21 | O=C(Nc1nc(/C=C/c2ccc(C(F)(F)F)cn2)cs1)c1cccn1Cc1ccncc1 [Compound A343] | 7.77 | 5.44 | 6.31 | 5.94 | 5.14 | 4.80 |  |  |  | 
22 | O=C(Nc1nc(/C=C/c2ccccc2)cs1)c1cccn1CCCc1ccncc1 [Compound A33, 1-(3-(pyridin-4-yl)propyl)-N-(4-styrylthiazol-2-yl)-1H-pyrrole-2-carboxamide] |  |  |  |  | 5.05 | 5.16 | 6.18 | < 4.60 | 5.79 | 5.61
23 | CC(OC(C)(C)c1csc(NC(=O)c2cccn2Cc2ccncc2)n1)c1ccccc1Cl (stereo not drawn) [Compound A8, N-(4-(2-(1-(2-chlorophenyl)ethoxy)propan-2-yl)thiazol-2-yl)-1-(pyridin-4-ylmethyl)-1H-pyrrole-2-carboxamide] |  |  |  |  | 5.41 | 5.10 | 7.24 | 6.38 | 6.76 | 6.78
24 | O=C(Nc1nc(/C=C/c2cccc(Cl)c2)cs1)c1cccn1Cc1ccncc1 [Compound A209, N-(4-(3-chlorostyryl)thiazol-2-yl)-1-(pyridin-4-ylmethyl)-1H-pyrrole-2-carboxamide] |  |  |  |  | < 4.60 | < 4.60 | 6.63 | 5.32 | 6.24 | 5.91
